Results published in ChEMBL document CHEMBL1146913, “Symmetrical and unsymmetrical analogues of isoxyl; active agents against Mycobacterium tuberculosis” (2006).
In brackets after ≈: the same amount, converted by molar mass.

Key:
[1] = test system: Vero; test: Selectivity index, IC50 against Vero cells/MIC against Mycobacterium; assay type: functional
[2] = test system: Mycobacterium tuberculosis; test: Antibacterial activity against Mycobacterium tuberculosis H37Rv; assay type: functional

| Structure (SMILES) | Selectivity index [1] | MIC99 [2] |
| --- | --- | --- |
| CCCCOc1ccc(NC(=S)Nc2ccc(SCCC)cc2)cc1 | 45.5 | 0.2 µg/mL (≈ 0.534 µM) |
| CCCCOc1ccc(NC(=S)Nc2ccc(CCCC)cc2)cc1 | 87 | < 0.1 µg/mL |
| CCCCOc1ccc(NC(=S)Nc2ccc(SCC(C)C)cc2)cc1 | – | > 6.25 µg/mL |
| CCCCOc1ccc(NC(=S)Nc2ccc(Cc3ccccc3)cc2)cc1 | 22.1 | 0.39 µg/mL (≈ 0.999 µM) |
| CC(C)CSc1ccc(NC(=S)Nc2ccc(SCC(C)C)cc2)cc1 | 12.4 | 0.78 µg/mL (≈ 1.93 µM) |
| CCCCOc1ccc(NC(=S)Nc2ccc(OCCC(C)C)cc2)cc1 | 89 | < 0.1 µg/mL |
| CCCOc1ccc(NC(=S)Nc2ccc(OCCC)cc2)cc1 | 44 | 0.2 µg/mL (≈ 0.581 µM) |
| CCCSc1ccc(NC(=S)Nc2ccc(Cc3ccccc3)cc2)cc1 | 5.28 | 1.56 µg/mL (≈ 3.97 µM) |
| CC(C)CCOc1ccc(NC(=S)Nc2ccc(Cc3ccccc3)cc2)cc1 | 48 | 0.2 µg/mL (≈ 0.494 µM) |
| CCCCOc1ccc(NC(=S)Nc2ccc(OCC(C)C)cc2)cc1 | 79.9 | 0.1 µg/mL (≈ 0.268 µM) |
| CC(C)CCOc1ccc(NC(=S)Nc2ccc(OCC(C)C)cc2)cc1 | 72 | 0.39 µg/mL (≈ 1.01 µM) |
| CCCCc1ccc(NC(=S)Nc2ccc(OCCC)cc2)cc1 | 100 | < 0.1 µg/mL |
| CC(C)CCOc1ccc(NC(=S)Nc2ccc(OCCC(C)C)cc2)cc1 [TIOCARLIDE] | 82 | 2 µg/mL (≈ 4.99 µM) |
